Data: patent publication US20070207120A1, “Selective Killing Of Cancer Cells By Induction Of Acetyltransferase Via Tnf-Alpha And Il-6” (priority 2004, published 2007)

Key:
Assay type in all cases: cell-based, human
normal WI38 cells = experiment: Cytokine and deacetylase inhibitor treatment, normal cells; conditions: for effect on / killing of normal WI38 cells: TSA, CBHA 2.5 μg/ml; for cell death in normal cells: in combination with cytokine treatment (TSA 400 nM; SAHA 5 μg/ml)
Protocol: (§1) Human cells WI38 (ATCC number CCL-75), WI38 VA13 (ECACC number 85062512), SaOS2 (ECACC number 89050205), U20S (ATCC number HTB-96), HeLa (CCL-2), HEK 293 (ATCC number CRL-1573) and Hs68 (ATCC number CRL-1635) were obtained from ATCC, ECACC or CR-UK cell services. All cells were cultured as monolayers in 10% foetal bovine serum in Dulbecco's minimal essential medium at 37° C. in 5% CO2, except SaOS2 cells which were cultured in McCoy's 5a medium supplemented with 1.5 mM L-glutamine and 15% foetal bovine serum. VA13 cells are WI38 primary fibroblasts transformed with SV40 virus and therefore share the same genetic background. To measure cell viability and total cell number, cells in suspension and adherent cells were collated and analysed by resuspending with a known concentration of CaliBRITE unlabelled beads (Becton Dickinson) plus propidium iodide and counting the number of live and dead cells per 3000 beads using a FACSCalibur flow cytometer (Becton Dickinson). Alternatively, an automated trypan blue assay using a Vi-Cell XR Cell Viability Analyzer (Beckman Coulter) was employed. Cells were treated with Interleukin 6 (20 ng/ml) for 24 hours, followed by addition of antibody 80M2 (1 μg/ml), which modulates TNFα receptor 2, and TNFα (10 ng/ml). TNFα was added to the cell culture medium 30 minutes after addition of 80M2. […] All agents were added to the cell culture medium in liquid form. […] For cytokine treatment in combination with deacetylase inhibitors, cells were harvested and counted 48 hours after addition of deacetylase inhibitor.

[1] = system: transformed WI38 VA13 cells; experiment: Cytokine and deacetylase inhibitor treatment, transformed cells; conditions: for efficacy in (selective) cell killing of transformed cells: alone and in combination with cytokine treatment, butyric acid 5 mM, TSA, CBHA 2.5 μg/ml, SAHA 5 μg/ml
Protocol: as §1

MCM3AP = experiment: Western blot of MCM3AP expression after cytokine treatment; conditions: HEK 293 cells; IL6 20 ng/ml, 24 hours later TNFα 10 ng/ml and 80M2 1 μg/ml; following three days
Protocol: HEK 293 cells (ATCC number CRL-1573) and Hs68 cells (ATCC number CRL-1635) were cultured as monolayers in 10% foetal calf serum in Dulbecco's minimal essential medium at 37° C. in 10% or 5% CO2 respectively, according to recommendations by the American Tissue Culture Collection. Stable cell lines of HEK 293 cells expressing inducible wild-type or mutant MCM3AP were made by stable transfection of vectors previously described by Takei et al. (2,3). Expression of MCM3AP was induced in these stable cell lines by treatment with doxycycline.
Exponentially growing cells were harvested and fractionated into soluble and structure-bound fractions. Cells were harvested by scraping adherent cells, pelleted by centrifugation at 200 g for 4 minutes and washed in cold PBS. The cell pellet was resuspended in cold hypotonic buffer (10 mM HEPES-KOH pH 7.3, 5 mM KCl, 1.5 mM MgCl2, 1 mM DTT, 1% NP40 and protease inhibitors) and incubated on ice for 15 minutes. Cells were centrifuged at 10,000 rpm for 5 minutes and the supernatant stored at −80° C. as the soluble protein fraction. […]
Samples were separated by 7.5% SDS-PAGE and transferred to PVDF membrane at a constant voltage of 10V for 1 hour. […] The bound antibodies were detected with peroxidase-conjugated secondary antibody (Amersham Biosciences) and protein bands visualised by the […] method using ECL or ECLplus (Amersham Biosciences). […]

HEK 293 cells = experiment: Apoptosis (annexin V) and attached cell number after cytokine treatment; conditions: HEK 293 attached cells; 24 hours after addition of TNFα and 80M2
Protocol: Cells were treated with Interleukin 6 (20 ng/ml) for 24 hours, followed by addition of antibody 80M2 (1 μg/ml), which modulates TNFα receptor 2, and TNFα (10 ng/ml). TNFα was added to the cell culture medium 30 minutes after addition of 80M2. All agents were added to the cell culture medium in liquid form. Cells were harvested after the indicated number of days of treatment, where ‘time zero’ corresponds to the point of addition of Interleukin 6.
Cells were assayed for apoptosis by Annexin V staining (Oncogene, Annexin V-FITC or Annexin V-Biotin apoptosis detection kit) and TUNEL assay (BD Biosciences, ApoAlert DNA fragmentation assay kit). Cells were assayed for Annexin V and TUNEL assay by flow cytometry, according to manufacturer's instructions. Attached cells were harvested and counted using a haemocytometer to give total attached cell number.
We examined the cell fate outcome of upregulating MCM3AP by cytokine treatment in HEK 293 cells. Treatment of HEK 293 cells with the same combination of cytokines that upregulates MCM3AP induces cell death by apoptosis (FIG. 4). Cells were treated with IL6 for 24 hours, followed by addition of TNFα and antibody 80M2. Attached cells were assayed for apoptosis and total cell number 24 hours and 36 hours later respectively.

O=C(/C=C/c1cccc(C(=O)NO)c1)NO [CBHA, cinnamic acid bishydroxamic acid]
effect on / killing of normal WI38 cells (normal WI38 cells): did not kill primary WI38 cells above background levels

O=C(CCCCCCC(=O)Nc1ccccc1)NO [SAHA, suberoylanilide hydroxamic acid]
cell death in normal cells (normal WI38 cells): ~40%

CC(/C=C/C(=O)NO)=C\[C@@H](C)C(=O)c1ccc(N(C)C)cc1 [TSA, trichostatin A]
effect of TSA at lower concentrations ([1]; 100 nM, 200 nM, 400 nM TSA): concentration dependent
efficacy in (selective) cell killing of transformed cells [1]: efficient in selectively killing transformed cells
transformed cells killed ([1]; three days of cytokine treatment in combination with deacetylase inhibitor (TSA 400 nM; CBHA 2.5 μg/ml; SAHA 5 μg/ml)): 80-90%
live cell number over time (normal WI38 cells; 400 nM TSA in combination with cytokine treatment, compare with t=0 value): reduction in live cell number
effect on / killing of normal WI38 cells (normal WI38 cells): minimal effect
cell death in normal cells (normal WI38 cells): ~20%

CCCC(=O)O [butyric acid]
efficacy in (selective) cell killing of transformed cells [1]: least effective

IL6: cytokine interleukin-6
MCM3AP protein expression (western blot) (MCM3AP): does not stimulate MCM3AP significantly

TNFα
MCM3AP protein expression (western blot) (MCM3AP): does not stimulate MCM3AP significantly
apoptosis (annexin-V staining) (HEK 293 cells): markedly reduced
